# In patent US11596611B2, “Hepatitis B antiviral agents” (ENANTA PHARMACEUTICALS, INC., priority 2017, dated 2023):
# System: HBV
# Assay: HepAD38 antiviral assay: reduction of viral product accumulation (virion DNA by qPCR, HBsAg or HBeAg by ELISA)
# Assay type: cell-based, hepatitis B virus
# Details: HepAD38 cells, five days after compound addition; 50% reduction of viral product vs no drug controls; read-out: HepAD38 EC50
# Method: Methods: HepAD38 cells are maintained as previously reported (Ladner et al, Antimicrob. Agents Chemother. 1997, […], 1715). Briefly, cells are passaged upon attaining confluency in DMEM/F12 media in the presence of 10% FBS, Penn/Strep, 250 μg/mL G418, and 1 ug/ml tetracycline. Novel compounds are screened by first washing cells three times with PBS to remove tetracycline, and plating in 96 well plates at 35,000 cells/well. Compounds dissolved in DMSO are then diluted 1:200 into wells containing cells. Five days after compound addition, material is harvested for analysis. For an extended 8 days analysis, cells are plated and treated as described above, but media and compound are refreshed on d2 and d5 post initial treatment.
# On harvest day, virion DNA is obtained by lysing with Sidestep Lysis and Stabilization Buffer and then quantified via quantitative real time PCR. Commercially available ELISA kits are used to quantitate the viral proteins HBsAg (Alpco) or HbeAg (US Biological) by following the manufacturer's recommended protocol after diluting samples to match the linear range of their respective assays.
row,SMILES,EC50
1,O=C(Nc1cc(F)c(F)c(F)c1)c1ccc(Cl)c(S(=O)(=O)[C@H]2CC3CCC(C2)[C@]3(O)[C@H](O)[C@@H](O)CO)c1 [Example 51],< 104 nM

# Same assay, conditions: Hepatitis B virus, 120 h; HepAD38 cells, five days after compound addition; 50% reduction of viral product vs no drug controls; read-out: HepAD38 EC50
row,SMILES,EC50
1,C[C@@]1(O)C2CC[C@H]1C[C@H](S(=O)(=O)c1cc(C(=O)Nc3ccc(F)c(C(F)(F)F)c3)ccc1Cl)C2 [Example 31],100 to 200 nM
2,COC(=O)C[C@]1(O)C2CCC1C[C@@H](S(=O)(=O)c1cc(C(=O)Nc3cc(F)c(F)c(F)c3)ccc1Cl)C2 [Example 32],> 200 nM
3,O=C(Nc1cc(F)c(F)c(F)c1)c1ccc(Cl)c(S(=O)(=O)[C@H]2CC3CCC(C2)[C@]3(O)CO[C@H]2C[C@@H](O)[C@@H](O)C2)c1 [Example 34],< 104 nM
4,O=C(Nc1cc(F)c(F)c(F)c1)c1ccc(Cl)c(S(=O)(=O)[C@H]2CC3CCC(C2)[C@]3(O)CO[C@@H]2C[C@@H](O)[C@@H](O)C2)c1 [Example 35],< 104 nM
5,C[C@]1(O)C2CCC1C[C@@H](S(=O)(=O)c1cccc(C(=O)Nc3cc(F)c(F)c(F)c3)c1)C2 [Example 37],100 to 200 nM
6,O=C(Nc1cc(F)c(F)c(F)c1)c1ccc(Cl)c(S(=O)(=O)[C@H]2CC3CCC(C2)[C@]3(O)CNS(=O)(=O)CC(O)CO)c1 (stereo partly drawn) [Example 40],> 200 nM
7,O=C(Nc1cc(F)c(F)c(F)c1)c1ccc(Cl)c(S(=O)(=O)[C@H]2CC3CCC(C2)[C@]3(O)[C@H](O)[C@@H](O)CO)c1 [Example 42],< 104 nM
8,CC(C)c1cc(NC(=O)c2ccc(Cl)c(S(=O)(=O)[C@H]3CC4CCC(C3)[C@@]4(C)O)c2)ccc1F [Example 43],> 200 nM
9,Cc1ccc(NC(=O)c2ccc(Cl)c(S(=O)(=O)[C@H]3CC4CCC(C3)[C@@]4(C)O)c2)cc1F [Example 44],> 200 nM
10,C[C@]1(O)C2CCC1C[C@@H](S(=O)(=O)c1cc(C(=O)Nc3ccc(C#N)c(F)c3)ccc1Cl)C2 [Example 45],> 200 nM
11,C[C@]1(O)C2CCC1C[C@@H](S(=O)(=O)c1cc(C(=O)Nc3ccc(Cl)c(F)c3)ccc1Cl)C2 [Example 46],> 200 nM
12,Cc1ccc(C(=O)Nc2ccc(F)c(F)c2)cc1S(=O)(=O)[C@H]1CC2CCC(C1)[C@@]2(C)O [Example 47],100 to 200 nM
13,COC(=O)N[C@@H](C)C(=O)NC[C@]1(O)C2CCC1C[C@@H](S(=O)(=O)c1cc(C(=O)Nc3cc(F)c(F)c(F)c3)ccc1Cl)C2 [Example 48],< 104 nM
14,COC(=O)N[C@@H](CO)C(=O)NC[C@]1(O)C2CCC1C[C@@H](S(=O)(=O)c1cc(C(=O)Nc3cc(F)c(F)c(F)c3)ccc1Cl)C2 [Example 49],> 200 nM
15,COC(=O)N[C@H](C(=O)NC[C@]1(O)C2CCC1C[C@@H](S(=O)(=O)c1cc(C(=O)Nc3cc(F)c(F)c(F)c3)ccc1Cl)C2)C(C)C [Example 50],< 104 nM
16,CC(C)(O)C(O)CNC(=O)C[C@]1(O)C2CCC1C[C@@H](S(=O)(=O)c1cc(C(=O)Nc3cc(F)c(F)c(F)c3)ccc1Cl)C2 (stereo partly drawn) [Example 56],100 to 200 nM
17,CC(O)C(O)CNC(=O)C[C@]1(O)C2CCC1C[C@@H](S(=O)(=O)c1cc(C(=O)Nc3cc(F)c(F)c(F)c3)ccc1Cl)C2 (stereo partly drawn) [Example 57],100 to 200 nM
18,O=C(Nc1cc(F)c(F)c(F)c1)c1ccc(Cl)c(S(=O)(=O)[C@H]2CC3CCC(C2)[C@]3(O)COC[C@H](O)C(O)CO)c1 (stereo partly drawn) [Example 60],100 to 200 nM
19,O=C(Nc1cc(F)c(F)c(F)c1)c1ccc(Cl)c(S(=O)(=O)[C@H]2CC3CCC(C2)[C@]3(O)COCC(O)CO)c1 (stereo partly drawn) [Example 63],< 104 nM
20,O=C(C[C@]1(O)C2CCC1C[C@@H](S(=O)(=O)c1cc(C(=O)Nc3cc(F)c(F)c(F)c3)ccc1Cl)C2)NCC(O)CO (stereo partly drawn) [Example 65],< 104 nM
21,O=C(Nc1cc(F)c(F)c(F)c1)c1ccc(Cl)c(S(=O)(=O)[C@@H]2CC3CC[C@@H](C2)[C@@]3(O)CNC(=O)C2CC2(O)CO)c1 (stereo partly drawn) [Example 67],> 200 nM
22,Cc1cc(Cl)c(S(=O)(=O)[C@H]2CC3CCC(C2)[C@@]3(C)O)cc1C(=O)Nc1ccc(F)c(F)c1 [Example 69],< 104 nM
23,COC(=O)N1CC(=O)C[C@H]1C(=O)NC[C@]1(O)C2CCC1C[C@@H](S(=O)(=O)c1cc(C(=O)Nc3cc(F)c(F)c(F)c3)ccc1Cl)C2 [Example 74],100 to 200 nM
24,CC(C)(C)OC(=O)N1CC[C@@H](O)[C@H]1C(=O)NC[C@@]1(O)C2CC[C@H]1C[C@H](S(=O)(=O)c1cc(C(=O)Nc3cc(F)c(F)c(F)c3)ccc1Cl)C2 [Example 76],< 104 nM
25,CC(C)(C)OC(=O)N1CC[C@H](O)[C@H]1C(=O)NC[C@@]1(O)C2CC[C@H]1C[C@H](S(=O)(=O)c1cc(C(=O)Nc3cc(F)c(F)c(F)c3)ccc1Cl)C2 [Example 77],> 200 nM
26,COC(=O)N1CC[C@@H](O)[C@H]1C(=O)NC[C@]1(O)C2CCC1C[C@@H](S(=O)(=O)c1cc(C(=O)Nc3cc(F)c(F)c(F)c3)ccc1Cl)C2 [Example 78],> 200 nM
27,COC(=O)N1CC[C@H](O)[C@H]1C(=O)NC[C@@]1(O)C2CC[C@H]1C[C@H](S(=O)(=O)c1cc(C(=O)Nc3cc(F)c(F)c(F)c3)ccc1Cl)C2 [Example 79],> 200 nM

row,SMILES,EC50
1,COC(=O)NCCC(=O)NC[C@@]1(O)C2CC[C@H]1C[C@H](S(=O)(=O)c1cc(C(=O)Nc3cc(F)c(F)c(F)c3)ccc1Cl)C2 [Example 80],< 104 nM
2,COC(=O)N[C@@H](CCC(N)=O)C(=O)NC[C@]1(O)C2CCC1C[C@@H](S(=O)(=O)c1cc(C(=O)Nc3cc(F)c(F)c(F)c3)ccc1Cl)C2 [Example 84],> 200 nM
3,O=C1N[C@H](C(=O)NC[C@]2(O)C3CCC2C[C@@H](S(=O)(=O)c2cc(C(=O)Nc4cc(F)c(F)c(F)c4)ccc2Cl)C3)CO1 [Example 85],> 200 nM
4,COC(=O)N[C@H](C)C(=O)NC[C@]1(O)C2CCC1C[C@@H](S(=O)(=O)c1cc(C(=O)Nc3cc(F)c(F)c(F)c3)ccc1Cl)C2 [Example 86],< 104 nM
5,O=C(Nc1cc(F)c(F)c(F)c1)c1ccc(Cl)c(S(=O)(=O)[C@H]2CC3CCC(C2)[C@]3(O)CNC(=O)C2CCOC2)c1 (stereo partly drawn) [Example 87],< 104 nM
6,O=C(Nc1cc(F)c(F)c(F)c1)c1ccc(Cl)c(S(=O)(=O)[C@H]2CC3CCC(C2)[C@]3(O)CC(=O)N2CC3(COC3)C2)c1 [Example 94],< 104 nM
7,O=C1N[C@@H](C(=O)NC[C@]2(O)C3CCC2C[C@@H](S(=O)(=O)c2cc(C(=O)Nc4cc(F)c(F)c(F)c4)ccc2Cl)C3)CO1 [Example 95],> 200 nM
8,COC(=O)NCC(O)C(=O)NC[C@]1(O)C2CCC1C[C@@H](S(=O)(=O)c1cc(C(=O)Nc3cc(F)c(F)c(F)c3)ccc1Cl)C2 (stereo partly drawn) [Example 96],100 to 200 nM
9,O=C1NC(C(=O)NC[C@]2(O)C3CCC2C[C@@H](S(=O)(=O)c2cc(C(=O)Nc4cc(F)c(F)c(F)c4)ccc2Cl)C3)CO1 (stereo partly drawn) [Example 97],100 to 200 nM
10,COCCOC[C@]1(O)C2CCC1C[C@@H](S(=O)(=O)c1cc(C(=O)Nc3cc(F)c(F)c(F)c3)ccc1Cl)C2 [Example 98],< 104 nM
11,COCCOCCOC[C@]1(O)C2CCC1C[C@@H](S(=O)(=O)c1cc(C(=O)Nc3cc(F)c(F)c(F)c3)ccc1Cl)C2 [Example 99],< 104 nM
12,C[C@]1(O)C2CCC1C[C@@H](S(=O)(=O)c1cc(C(=O)Nc3ccc(F)c(F)c3)c(Br)cc1Cl)C2 [Example 100],< 104 nM
13,C[C@]1(O)C2CCC1C[C@@H](S(=O)(=O)c1cc(C(=O)Nc3ccc(F)c(F)c3)c(-c3ccccc3)cc1Cl)C2 [Example 101],> 200 nM
14,C[C@]1(O)C2CCC1C[C@@H](S(=O)(=O)c1cc(C(=O)Nc3ccc(F)c(F)c3)c(-c3cccnc3)cc1Cl)C2 [Example 102],> 200 nM
15,CCCCc1cc(Cl)c(S(=O)(=O)[C@H]2CC3CCC(C2)[C@@]3(C)O)cc1C(=O)Nc1ccc(F)c(F)c1 [Example 103],< 104 nM
16,COc1cc(NC(=O)c2ccc(Cl)c(S(=O)(=O)[C@H]3CC4CCC(C3)[C@@]4(C)O)c2)ccc1F [Example 104],> 200 nM
17,C[C@]1(O)C2CCC1C[C@@H](S(=O)(=O)c1cc(C(=O)Nc3cc(F)cc(F)c3)ccc1Cl)C2 [Example 105],< 104 nM
18,COC(=O)N1C[C@H](O)C[C@H]1C(=O)NCC(O)[C@]1(O)C2CCC1C[C@@H](S(=O)(=O)c1cc(C(=O)Nc3cc(F)c(F)c(F)c3)ccc1Cl)C2 (stereo partly drawn) [Example 107],> 200 nM
19,O=C(C[C@]1(O)C2CCC1C[C@@H](S(=O)(=O)c1cc(C(=O)Nc3cc(F)c(F)c(F)c3)ccc1Cl)C2)NC1COC1 [Example 110],< 104 nM
20,COC[C@@H](C)NC(=O)C[C@]1(O)C2CCC1C[C@@H](S(=O)(=O)c1cc(C(=O)Nc3cc(F)c(F)c(F)c3)ccc1Cl)C2 [Example 115],< 104 nM
21,COC[C@H](C)NC(=O)C[C@]1(O)C2CCC1C[C@@H](S(=O)(=O)c1cc(C(=O)Nc3cc(F)c(F)c(F)c3)ccc1Cl)C2 [Example 118],< 104 nM
22,COC(=O)CNC(=O)C[C@]1(O)C2CCC1C[C@@H](S(=O)(=O)c1cc(C(=O)Nc3cc(F)c(F)c(F)c3)ccc1Cl)C2 [Example 119],> 200 nM
23,O=C(O)CNC(=O)C[C@]1(O)C2CCC1C[C@@H](S(=O)(=O)c1cc(C(=O)Nc3cc(F)c(F)c(F)c3)ccc1Cl)C2 [Example 120],> 200 nM
24,COCC(COC)OC[C@]1(O)C2CCC1C[C@@H](S(=O)(=O)c1cc(C(=O)Nc3cc(F)c(F)c(F)c3)ccc1Cl)C2 [Example 121],< 104 nM
25,COC[C@]1(O)C2CCC1C[C@@H](S(=O)(=O)c1cc(C(=O)Nc3cc(F)c(F)c(F)c3)ccc1Cl)C2 [Example 123],< 104 nM
26,COC[C@]1(O)C2CCC1C[C@H](S(=O)(=O)c1cc(C(=O)Nc3cc(F)c(F)c(F)c3)ccc1Cl)C2 [Example 124],< 104 nM
